Assay: Human HepG2 cell viability assay in 384 well format
Format: toxicity, cell-based
Set-up: dose 125 nL, time 70.5 hour; cytotoxicity at 70.5 h: concentration not given beside the values
Settings: HepG2 cells, read-out: Inhibition

Structure (SMILES): CC(CNC(=O)NCc1ccco1)CC1(C)OCCO1 (stereo not given)
- cytotoxicity at 70.5 h: 15.5%

Structure (SMILES): O=C(Cc1cccs1)NC1CCN(c2cccc(F)c2)CC1
- cytotoxicity at 70.5 h: 1.18%

Structure (SMILES): Cc1nc[nH]c1-c1nc2cc(S(=O)(=O)N3CCCC3)ccc2n1C
- cytotoxicity at 70.5 h: -2.05%

Structure (SMILES): CC(C)(C)c1csc(C2CCCCN2C(=O)CCn2cncn2)n1 (stereo not given)
- cytotoxicity at 70.5 h: -5.87%

Structure (SMILES): COCc1ccccc1C(=O)N1CCCC(c2cc(C)[nH]n2)C1 (stereo not given)
- cytotoxicity at 70.5 h: 26.2%

Structure (SMILES): Cn1nc(C2CN(C(=O)c3ccncc3)C2)c2nccnc21
- cytotoxicity at 70.5 h: 13.9%

Structure (SMILES): CCCc1nc(NCCCOCC)c2c(n1)c(C)nn2CC
- cytotoxicity at 70.5 h: -18.2%

Structure (SMILES): COCCN(CC(F)F)c1cc(C(F)(F)F)nc2ncnn12
- cytotoxicity at 70.5 h: -7.29%

Structure (SMILES): CCOc1ccccc1C1CCCN1 (stereo not given)
- cytotoxicity at 70.5 h: 1.15%

Structure (SMILES): O=C(c1ccccn1)N1CCC2(CC1)C(=O)Nc1ccccc12
- cytotoxicity at 70.5 h: -9.49%

Structure (SMILES): COCCc1noc(CN2CCN(CC(O)c3ccccc3)CC2)n1 (stereo not given)
- cytotoxicity at 70.5 h: -6.23%

Structure (SMILES): CCCS(=O)(=O)NC1CCN(c2cccc(F)c2C#N)CC1
- cytotoxicity at 70.5 h: -19.1%

Structure (SMILES): CCn1ncnc1C(C)Nc1cc(C)c2ccc(SC)cc2n1 (stereo not given)
- cytotoxicity at 70.5 h: -11.1%

Structure (SMILES): CC(=O)N1C[C@H]2C3(CCN(S(C)(=O)=O)CC3)CC[C@@]2(C(=O)N(C)C)C1
- cytotoxicity at 70.5 h: -8.99%

Structure (SMILES): CC(C)NC(=O)CC1COC2(CCN(Cc3ccccc3)CC2)C1 (stereo not given)
- cytotoxicity at 70.5 h: -14.2%

Structure (SMILES): CC(=O)N1CCN(C(=O)Nc2ccccc2Cl)[C@H]2CS(=O)(=O)C[C@H]21
- cytotoxicity at 70.5 h: -16%

Structure (SMILES): O=C(CCc1nc(Cl)n[nH]1)N1CCC2(CCCNC2=O)C1 (stereo not given)
- cytotoxicity at 70.5 h: 4.11%

Structure (SMILES): Cc1cccc(OCc2nnc(SCC3CCCN(C)C3)o2)c1 (stereo not given)
- cytotoxicity at 70.5 h: -5.28%

Structure (SMILES): Cc1cc2[nH]c(O)nc2cc1NCc1ccc(F)cc1
- cytotoxicity at 70.5 h: -10.2%

Structure (SMILES): O=C(Cc1cccc(F)c1F)NS(=O)(=O)c1ccc(Cl)cc1F
- cytotoxicity at 70.5 h: 12.1%

Structure (SMILES): COCCNC(=O)[C@H]1CN(c2nnc(C)s2)C[C@H]2OCC[C@@H]12
- cytotoxicity at 70.5 h: -17.6%

Structure (SMILES): CN1CCCCC1c1cncc(N2CCC(O)CC2)n1 (stereo not given)
- cytotoxicity at 70.5 h: -0.469%

Structure (SMILES): CCc1[nH]ncc1C(=O)N1CCCC(n2cc(C)cn2)C1 (stereo not given)
- cytotoxicity at 70.5 h: -5.59%

Structure (SMILES): c1cnc(-c2nc(CN3CCCC(Cn4cncn4)C3)cs2)nc1 (stereo not given)
- cytotoxicity at 70.5 h: -11%

Structure (SMILES): COc1cccc(NC(=O)CN(C(C)C)C2CC2)c1
- cytotoxicity at 70.5 h: -2.69%

Structure (SMILES): Cn1ccnc1Sc1ccc(S(N)(=O)=O)cn1
- cytotoxicity at 70.5 h: -5.03%

Structure (SMILES): NC(=O)C(NC1CCN(CC2CCCCC2)CC1)c1ccc(F)cc1 (stereo not given)
- cytotoxicity at 70.5 h: -9.96%

Structure (SMILES): CN1CCN(Cc2nc3c(s2)CCCC3)[C@H]2CS(=O)(=O)C[C@H]21
- cytotoxicity at 70.5 h: 1.26%

Structure (SMILES): Cc1cc(CN2CCN(C(=O)NC(C)c3ccc(C)o3)CC2)on1 (stereo not given)
- cytotoxicity at 70.5 h: -9.49%

Structure (SMILES): Cc1noc(-c2ccc(Oc3cccc(CN4CCCC4)c3F)nc2)n1
- cytotoxicity at 70.5 h: 16.7%

Structure (SMILES): CNC(=O)c1nc2c(s1)CCN(C(=O)c1cccnc1)CC2
- cytotoxicity at 70.5 h: -0.11%

Structure (SMILES): COCC(=O)N(CCC(=O)OC)CC1CCCO1 (stereo not given)
- cytotoxicity at 70.5 h: -10.3%

Structure (SMILES): O=C(c1ccccn1)N1Cc2nccn2CC(CN2CCOCC2)C1 (stereo not given)
- cytotoxicity at 70.5 h: -10.3%

Structure (SMILES): CC(C)CN1CCN(C)C2(CCN(c3nccs3)CC2)C1=O
- cytotoxicity at 70.5 h: 33.2%

Structure (SMILES): CN(Cc1ccc(-n2cccn2)cc1)C(=O)CCC(F)(F)F
- cytotoxicity at 70.5 h: 26.9%

Structure (SMILES): CC(CCc1ccco1)NC(=O)Nc1cc(C(F)(F)F)c[nH]c1=O (stereo not given)
- cytotoxicity at 70.5 h: 0.203%

Structure (SMILES): Cc1nccn1-c1ccc(C(C)Nc2cnn(C)c(=O)c2Cl)cc1 (stereo not given)
- cytotoxicity at 70.5 h: 9.7%

Structure (SMILES): O=C(C(c1ccccc1)S(=O)(=O)c1ccccc1)N1CCCCC1 (stereo not given)
- cytotoxicity at 70.5 h: 3.14%

Structure (SMILES): Cn1nc(-c2cccs2)cc1[C@H]1CN2CC[C@H]1C[C@@H]2CNS(C)(=O)=O
- cytotoxicity at 70.5 h: -6.43%

Structure (SMILES): Cc1cccn2cc(CN3CCCC(O)C3)nc12 (stereo not given)
- cytotoxicity at 70.5 h: -2.97%

Structure (SMILES): O=C([C@H]1C[C@H]2OCC[C@H]2N(C(=O)C2CCOCC2)C1)N1CCCCO1
- cytotoxicity at 70.5 h: -2.55%

Structure (SMILES): CCS(=O)(=O)N1CCc2c(cnc(-c3cccnc3)c2C(=O)O)C1
- cytotoxicity at 70.5 h: 10.1%

Structure (SMILES): NC(=O)C1CCN(C(=O)NCc2csc(Br)c2)CC1
- cytotoxicity at 70.5 h: -7.32%

Structure (SMILES): N#Cc1ccc(OCCN2CCc3cncnc3C2)cc1
- cytotoxicity at 70.5 h: 0.4%

Structure (SMILES): COc1ccc(Cl)cc1-c1cc(NC(=O)C2CNC(=O)N2)[nH]n1 (stereo not given)
- cytotoxicity at 70.5 h: 1.69%

Structure (SMILES): CCN1C(=O)CC[C@]12CC[C@@H](NC(=O)c1cc(C)on1)CC2
- cytotoxicity at 70.5 h: -7.54%

Structure (SMILES): CCc1ncc2c(n1)CN(CC(=O)N1CCc3sccc3C1)CC2
- cytotoxicity at 70.5 h: -9%

Structure (SMILES): O=C(c1ccoc1)N1CCC2(C1)CN(c1nccs1)C2
- cytotoxicity at 70.5 h: -2.55%

Structure (SMILES): CN(Cc1cnccn1)C(=O)[C@@]12CNC[C@@H]1CN(Cc1ccccc1)C2
- cytotoxicity at 70.5 h: -11.2%

Structure (SMILES): N#Cc1ccccc1C(=O)N1C[C@H]2CC[C@@H]1CN(Cc1ccccc1)C2
- cytotoxicity at 70.5 h: -13.1%

Structure (SMILES): N#Cc1cc2c(=O)n(CC(O)c3cccc(O)c3)ccc2[nH]c1=O (stereo not given)
- cytotoxicity at 70.5 h: -6.53%

Structure (SMILES): CSc1nnc(CNC(=O)Nc2ccccc2Br)n1C
- cytotoxicity at 70.5 h: -3.94%

Structure (SMILES): Cc1ccc(S(=O)(=O)c2ncccc2CN2CCOCC2)cc1
- cytotoxicity at 70.5 h: -17.9%

Structure (SMILES): N#Cc1cccc(C(=O)N2CC[C@H]3[C@H]2CCN3CC2CC2)c1
- cytotoxicity at 70.5 h: 19.2%

Structure (SMILES): CSc1cc2c(cc1NC(=O)N(C)Cc1ccncc1)OCCO2
- cytotoxicity at 70.5 h: -2.5%

Structure (SMILES): CCOc1c(C(N)=O)cn(C)c1-c1nc2cc(NC(C)=O)ccc2n1C
- cytotoxicity at 70.5 h: -19.2%

Structure (SMILES): CN(C)C(=O)[C@H]1CCS(=O)(=O)[C@@H]2CN(c3ncc(F)cn3)C[C@H]12
- cytotoxicity at 70.5 h: 23.5%

Structure (SMILES): CN(CC(=O)N1CCC(Cc2cccc(C(N)=O)c2)C1)C1CCCC1 (stereo not given)
- cytotoxicity at 70.5 h: 20.8%

Structure (SMILES): CCc1nnc(CN(C)c2nc(C3CCCC3)nc3c2cnn3C)o1
- cytotoxicity at 70.5 h: -6.42%

Structure (SMILES): Cc1nnc(N2CCOC(C)C2)c(C#N)c1C (stereo not given)
- cytotoxicity at 70.5 h: -8.59%

Structure (SMILES): COc1ncc(CN2CCOC(Cc3cccc4ccccc34)C2)cn1 (stereo not given)
- cytotoxicity at 70.5 h: 20%

Structure (SMILES): CC(C)C(NC(=O)NCC1(CO)CC1)c1nnc2n1CCC2 (stereo not given)
- cytotoxicity at 70.5 h: -4.32%

Structure (SMILES): CC(C)CN1Cc2nc(N3CCCC(C)C3)ncc2C1=O (stereo not given)
- cytotoxicity at 70.5 h: -9.32%

Structure (SMILES): Cn1cc(C(=O)N2CC[C@@]3(O)CCN(C4CCCCC4)C[C@H]3C2)cn1
- cytotoxicity at 70.5 h: -2.94%

Structure (SMILES): NC1CCc2nc(-c3ccncc3)nc(Nc3cccc(F)c3)c2C1 (stereo not given)
- cytotoxicity at 70.5 h: 9.56%

Structure (SMILES): O=C(CSc1ccc2c(c1)OCCO2)NS(=O)(=O)c1ccccc1Cl
- cytotoxicity at 70.5 h: -4.64%

Structure (SMILES): Cc1cc(N2CCCN(CCc3ccccc3)CC2)ccn1
- cytotoxicity at 70.5 h: -5.44%

Structure (SMILES): COCc1cnc2n1CCN(C1CCC1)C2C (stereo not given)
- cytotoxicity at 70.5 h: -2.01%

Structure (SMILES): Cc1cc(C(=O)NCCN2CCCc3ccccc32)[nH]n1
- cytotoxicity at 70.5 h: 22.8%

Structure (SMILES): Cc1ccc(CN2CC(C(=O)Nc3ccccc3)C3(CCOCC3)C2)o1 (stereo not given)
- cytotoxicity at 70.5 h: -12.3%

Structure (SMILES): COc1ccc(CC(=O)N2C[C@H]3CN(Cc4ccccn4)C[C@H]3C2)cc1
- cytotoxicity at 70.5 h: -3.26%

Structure (SMILES): CCS(=O)(=O)NCc1cc(Br)c(OC)c(OC)c1
- cytotoxicity at 70.5 h: -8.56%

Structure (SMILES): CCOc1ccc(N(C)Cc2nnc(C3CC3)o2)cc1
- cytotoxicity at 70.5 h: -2.24%

Structure (SMILES): CCc1nccn1C1CCCN(C(=O)c2ccn(-c3ccccc3)n2)C1 (stereo not given)
- cytotoxicity at 70.5 h: -1.19%

Structure (SMILES): O=C(c1cnccn1)N1CCCC2(CCN(Cc3ccsc3)CC2)C1
- cytotoxicity at 70.5 h: 3.52%

Structure (SMILES): CNC(=O)CN(C)c1cncc(OCC(C)C)n1
- cytotoxicity at 70.5 h: -5.85%

Structure (SMILES): c1ccc(C2CCCCN2Cc2nc(-c3cnccn3)no2)nc1 (stereo not given)
- cytotoxicity at 70.5 h: -1.69%

Structure (SMILES): Cc1ccnn1CCC(=O)N1CCCC[C@@]2(C)[C@@H]1CCC(=O)N2C
- cytotoxicity at 70.5 h: -4.62%

Structure (SMILES): Cc1cnc(-c2cccc(-c3ccn(CCCO)n3)c2)nc1N(C)C
- cytotoxicity at 70.5 h: -3.76%

Structure (SMILES): CN(C)C[C@@H]1C[C@@H]2CN(Cc3nccn3C)CC[C@@H]2N1CC1CC1
- cytotoxicity at 70.5 h: -0.157%

Reference: ChEMBL document CHEMBL3507680, “University of Dundee, Gates Library screen for HepG2 cell viability”
